{"source": "patent US10293004B2", "about": "“Butyrate-producing bacterium and use thereof” (KABUSHIKI KAISHA YAKULT HONSHA, priority 2014, dated 2019)", "key": {"[1]": {"assay": "Turbidity (OD660) after anaerobic culture of bacterial strains in PYGA, PYSA or PYXA medium", "protocol": "(§1) A frozen stock solution of each bacterial strain (a 10% (w/v) skim milk-2% sodium glutamate solution in which bacterial cells were suspended) (cell count: 2.0 to 5.5×10^10 cells/mL) was thawed, and the solution was inoculated at 1% to 4 mL of a PY liquid medium supplemented with 33 mM sodium acetate and 0.5 (w/v) % glucose (PYGA medium), followed by anaerobic culture at 37° C. for 24 hours. After the culture, the culture solution was inoculated at 1% to a fresh PYGA medium, followed by anaerobic culture at 37° C. for 24 hours. After the culture, the turbidity (OD660) of the culture solution was measured. Then, the culture solution was inoculated at 1% to a PY medium containing 0.5 (w/v) % L-sorbose or D-xylitol and 33 mM sodium acetate (the medium containing L-sorbose: PYSA, and the medium containing D-xylitol: PYXA), followed by anaerobic culture at 37° C. for 24 hours. Then, the turbidity (OD660) was measured."}, "[2]": {"assay": "Production of butyrate by each bacterial strain from L-sorbose and D-xylitol (ion-exclusion HPLC)", "settings": "24 hours, minus PYA blank", "protocol": "as §1\nAfter the completion of the culture, the organic acid concentration in the culture solution was quantified by ion-exclusion HPLC. In this operation, a culture solution in a PY medium supplemented with sodium acetate but without L-sorbose or D-xylitol (PYA medium) was used as a blank.\n(HPLC Analysis Conditions) • Eluent: 15 mM perchloric acid-7% acetonitrile • pH adjuster: 15 mM perchloric acid-60 mM • tris(hydroxymethyl)aminomethane-7% acetonitrile • Separation column: Organic acid analysis column RSpak KC- • 811×2 (manufactured by Showa Denko K.K.) • Column temperature: 42° C. • Injected sample volume: 10 μL • Flow rate: 1.0 mL/min • Analysis time: 35 min • Detector: Waters 432 electric conductivity detector • Cell temperature: 45° C.\nThe amount of butyrate produced was calculated according to (Expression 1). Amount of butyrate produced=(Amount of butyrate produced by culture for 24 hours in a PYSA or PYXA medium)−(Amount of butyrate produced by culture for 24 hours in a PYA medium) (Expression 1)"}, "[3]": {"assay": "Biochemical properties: enzymatic activity (API-ZYM, Rapid ID32A API, API KENKI 20A)", "parameters": "key: +: positive reaction; −: negative reaction; +^w: weak reaction", "excerpt": "(§2) Commercially available API-ZYM, Rapid ID32A API, and API KENKI 20A (SYSMEX bioMerieux Co., Ltd.) were used in the testing of biochemical properties of various bacterial strains. The testing method followed the product manuals."}, "[4]": {"assay": "Biochemical properties: saccharide fermentability (API-ZYM, Rapid ID32A API, API KENKI 20A)", "parameters": "key: +: positive reaction; −: negative reaction; +^w: weak reaction", "excerpt": "as §2"}, "[5]": {"system": "mouse C57BL/6J", "assay": "Multiple oral dose test of YIT 12355 to mouse given indigestible saccharide", "type": "in vivo", "settings": "for Total cell count: DAPI counting method; for Cell count, A. hadrus: quantitative PCR, multiple oral dose; for Occupancy: cell count of YIT 12355/total cell count ×100; for Detected count: mice with A. hadrus detected / mice in group", "protocol": "Mice were acclimatized and raised with F2 feed (manufactured by Funabashi Farm Co., Ltd.) for 1 week and then divided into 6 groups such that the average body weight was almost equal among these groups. Then, a control diet (Table 7) was administered thereto for 1 week and replaced with purified feed containing an indigestible material, which was then administered thereto for 2 weeks. A live cell suspension of YIT 12355 was orally administered twice a week a total of 4 times using a probe. At the final day of the test, each mouse was dissected, and the cecal and colonic contents were recovered and examined for an organic acid concentration. Also, the cell count of YIT 12355 in the intestinal tract contents was measured by quantitative PCR, while change in the whole intestinal flora was examined by use of PCR-DGGE (denaturing gradient gel electrophoresis). • Animal used: mouse C57BL/6J (4 weeks old; CLEA Japan, Inc.) • Test period: 3 weeks • Indigestible saccharide used: lactitol and maltitol • Dose of indigestible saccharide: 5% (w/w) • Administered bacterial strain: YIT 12355 • Dose of bacterium: live cell dose: 3.9 to 6.9×10^8 cfu/mouse (administration of a suspension in physiological saline using a probe). Total cell count including dead cells: […] cfu/mouse • Group configuration: 6 groups (5 mice/group) At the 2nd week of administration of the test feed, each mouse was anesthetized with diethyl ether and euthanized by cervical dislocation. After abdominal section, cecal tissues and colonic tissues were excised to recover their contents. The cecal and colonic contents were diluted 10-fold with PBS and subjected to DNA extraction. DNA was extracted by the bead-phenol method from the 10-fold diluted solution of the intestinal tract contents. Specifically, 0.3 g of glass beads (diameter: 0.1 mm), 300 μL of a Tris-SDS solution (a mixed solution of 250 mL of 200 mM Tris-HCl, 80 mM EDTA, pH 9.0, and 50 mL of 10% SDS) and 500 μL of TE saturated phenol were added to 200 μL of the diluted solution of the intestinal tract contents, and the mixture was vigorously shaken for 30 seconds using FASTPREP FP120 cell disruptive equipment (power level: 5.0). After centrifugation at 15,000 rpm for 5 minutes, 400 μL of a phenol/chloroform/isoamyl alcohol (25:24:1) solution was added to 400 μL of the supernatant, and the mixture was shaken for 45 seconds using FASTPREP FP120 cell disruptive equipment (power level: 4.0). After centrifugation at 15,000 rpm for 5 minutes, 25 μL of 3 M sodium acetate (pH 5.4) and 250 μL of isopropanol were added to 250 μL of the supernatant and mixed therewith. After centrifugation at 15,000 rpm for 5 minutes, the supernatant was removed, and 500 μL of 70% ethanol was added thereto, followed by centrifugation again at 15,000 rpm for 5 minutes. The supernatant was removed, and the pellets were dried and dissolved in 1.0 mL of a TE buffer. The obtained DNA solution was diluted 10-fold with purified water to prepare a template DNA solution. For quantitative PCR, 7500 Real-Time PCR System (manufactured by Life Technologies Corp.) was used. The total volume of the reaction solution was set to 20 μL, and SYBR Premix Ex Taq II (Takara Bio Inc.) containing 1.0 μM each of primers, and the template DNA solution were mixed and then subjected to quantitative PCR. The reaction conditions involved heating at 95° C. for 2 minutes, followed by 40 repetitive cycles each involving reactions at 95° C. for 20 seconds, 55° C. for 20 seconds and 72° C. for 50 seconds, and subsequent reaction at 72° C. for 3 minutes. For subsequent Tm value analysis, after reaction at 60° C. for 1 minute, the temperature was elevated at a temperature gradient of 0.2° C./sec to 95° C. during which the fluorescence of SYBR Green I was measured to measure the dissociation temperature (Tm) of the double strand of the amplification product. […]"}, "[6]": {"system": "mouse C57BL/6J", "assay": "Single oral dose test of YIT 12355 to mouse given indigestible saccharide", "type": "in vivo", "settings": "cecum, single oral dose", "protocol": "Mice were acclimatized and raised with F2 feed for 1 week and then divided into 4 groups such that the average body weight was almost equal among these groups. A control diet (Table 12) was administered thereto for 1 week. Then, the control diet was administered to the control group (−/− group) and the AH/− group for 2 weeks while purified feed containing maltitol (MAL-containing diet) was administered to the −/MAL group and the AH/MAL group for 2 weeks. A live cell suspension of YIT 12355 was administered at a single dose using a probe after the administration of the control diet for 1 week. At the final day of the test, each mouse was dissected, and the cecal contents were recovered. The cecal contents were subjected to the cell count measurement of YIT 12355. • Test material: Maltitol (5% mixed feed administration) • Administered bacterial strain: YIT 12355 • Animal species: Mouse C57BL/6J (4 weeks old; CLEA Japan, Inc.) • Group configuration: 7 mice×4 groups The bacterial solution (viable count: 3.1×10^9 cfu/mL, total cell count: 1.9×10^10 cells/mL) prepared in the preceding paragraph 2) was orally administered at a single dose of 0.2 mL (viable count: 6.2×10^8 cfu/mouse, total cell count: 3.8×10^9 cells/mouse) to each mouse using a probe. To the control group and the −/MAL group, 0.2 mL of physiological saline was administered instead of the bacterial solution. […] Then, the cecal contents were recovered. The cecal contents were diluted 10-fold with PBS and subjected to DNA extraction. DNA was extracted by the bead-phenol method described in the paragraph 4)a) of Example 5 from the 10-fold diluted solution of the intestinal tract contents. The cell count of YIT 12355 was measured by quantitative PCR using the obtained DNA as a template and the bacterial species-specific primers described in the paragraph 4)a) of Example 5. After fixation of a portion of the 10-fold diluted solution of the intestinal tract contents in a 4% solution of paraformaldehyde in PBS, the total cell count was measured by the DAPI counting method. The cell count of YIT 12355 was divided by the total cell count to calculate an occupancy (%). (Occupancy of YIT 12355) (%)=(Cell count of YIT 12355/Total cell count)×100 (Expression 5)"}}}
{"compound": "Anaerostipes hadrus (Eubacterium hadrum) YIT 10092^T (DSM 3319^T) [reference compound]", "values": [{"measurement": "Turbidity (OD660)", "setting": "[1]; after anaerobic culture at 37° C. for 24 hours in PYGA liquid medium", "value": 2.80}, {"measurement": "Turbidity (OD660)", "setting": "[1]; anaerobic culture at 37° C. for 24 hours of 1% inoculum in PYSA (L-sorbose)", "value": 2.56}, {"measurement": "Turbidity (OD660)", "setting": "[1]; anaerobic culture at 37° C. for 24 hours of 1% inoculum in PYXA (D-xylitol)", "value": 0.11}, {"measurement": "Amount of butyrate produced", "setting": "[2]; D-Xylitol 0.5 (w/v) %, PYXA medium", "value": -0.1, "unit": "mmol/L"}, {"measurement": "Amount of butyrate produced", "setting": "[2]; L-Sorbose 0.5 (w/v) %, PYSA medium", "value": 9.7, "unit": "mmol/L"}, {"measurement": "Acid phosphatase", "setting": "[3]", "value": "+"}, {"measurement": "Alkaline phosphatase", "setting": "[3]", "value": "−"}, {"measurement": "Esterase (C4)", "setting": "[3]", "value": "+"}, {"measurement": "Naphthol-AS-B1-phosphohydrolase", "setting": "[3]", "value": "+"}, {"measurement": "α-Glucosidase", "setting": "[3]", "value": "−"}, {"measurement": "β-Galactosidase", "setting": "[3]", "value": "+"}, {"measurement": "β-Galactosidase-6-phosphate", "setting": "[3]", "value": "+"}, {"measurement": "Aesculin", "setting": "[4]", "value": "−"}, {"measurement": "D-Cellobiose", "setting": "[4]", "value": "+"}, {"measurement": "D-Mannitol", "setting": "[4]", "value": "+"}, {"measurement": "D-Raffinose", "setting": "[4]", "value": "−"}, {"measurement": "D-Xylose", "setting": "[4]", "value": "+"}, {"measurement": "Glycerol", "setting": "[4]", "value": "−"}, {"measurement": "L-Arabinose", "setting": "[4]", "value": "+"}, {"measurement": "L-Rhamnose", "setting": "[4]", "value": "−"}, {"measurement": "L-Sorbitol", "setting": "[4]", "value": "+"}, {"measurement": "Mallose", "setting": "[4]", "value": "+^w"}, {"measurement": "Salicin", "setting": "[4]", "value": "+"}]}
{"compound": "OC[C@@H](O)[C@@H](O[C@@H]1O[C@H](CO)[C@H](O)[C@H](O)[C@H]1O)[C@H](O)[C@@H](O)CO", "note": "[—/LAC group, lactitol]", "values": [{"measurement": "Total cell count", "setting": "[5]; Cecal contents", "value": "11.1 ± 0.1", "unit": "log10 cells/g contents"}, {"measurement": "Cell count, A. hadrus", "setting": "[5]; Cecal contents", "value": 7.2, "unit": "log10 cells/g contents"}, {"measurement": "Occupancy", "setting": "[5]; Cecal contents", "value": 0.014, "unit": "%"}, {"measurement": "Detected count", "setting": "[5]; Cecal contents", "value": "(1/5)"}, {"measurement": "Total cell count", "setting": "[5]; Colonic contents", "value": "11.1 ± 0.1", "unit": "log10 cells/g contents"}, {"measurement": "Occupancy", "setting": "[5]; Colonic contents", "value": 0.000, "unit": "%"}, {"measurement": "Detected count", "setting": "[5]; Colonic contents", "value": "(0/5)"}]}
{"compound": "OC[C@@H](O)[C@@H](O[C@H]1O[C@H](CO)[C@@H](O)[C@H](O)[C@H]1O)[C@H](O)[C@@H](O)CO", "note": "[—/MAL group, maltitol]", "values": [{"measurement": "Total cell count", "setting": "[5]; Cecal contents", "value": "11.0 ± 0.1", "unit": "log10 cells/g contents"}, {"measurement": "Cell count, A. hadrus", "setting": "[5]; Cecal contents", "value": 6.1, "unit": "log10 cells/g contents"}, {"measurement": "Occupancy", "setting": "[5]; Cecal contents", "value": 0.001, "unit": "%"}, {"measurement": "Detected count", "setting": "[5]; Cecal contents", "value": "(1/5)"}, {"measurement": "Total cell count", "setting": "[5]; Colonic contents", "value": "11.0 ± 0.1", "unit": "log10 cells/g contents"}, {"measurement": "Occupancy", "setting": "[5]; Colonic contents", "value": 0.000, "unit": "%"}, {"measurement": "Detected count", "setting": "[5]; Colonic contents", "value": "(0/5)"}, {"measurement": "Total cell count", "setting": "[6]; DAPI counting method", "value": "10.9 ± 0.1 log10 (cells/g contents)"}, {"measurement": "Cell count, A. hadrus YIT 12355", "setting": "[6]; quantitative PCR", "value": "<6.0 log10 (cells/g contents)"}, {"measurement": "Occupancy", "setting": "[6]; ratio to total cell count", "value": 0.0, "unit": "%"}]}
